This is an account of results in PubChem BioAssay AID256 (DTP/NCI, 2004).

The experiment concerns CD2F1 mice, L1210 leukemia ip, survival T/C. Put plainly: NCI In Vivo Anticancer Drug Screen. Data for tumor model L1210 Leukemia (intraperitoneal) in CD2F1 (CDF1) mice. To be noted: higher = longer survival. The essentials: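 Antitumor effect is scored in animals hosting a serially transplanted tumor. Values compare compound-dosed animals against vehicle-only controls as a simple quotient.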

Where [1] appears, read: endpoint: mean survival time, dose: 100.0 mg/kg/injection, schedule: Q01DX009 (ip), vehicle: saline with Tween-80.
Setting [2] is: endpoint: mean survival time, dose: 100.0 mg/kg/injection, schedule: Q04DX003 (ip), vehicle: saline with Tween-80.
Setting [3] is: endpoint: mean survival time, dose: 200.0 mg/kg/injection, schedule: Q01DX009 (ip), vehicle: saline with Tween-80.
Setting [4] is: endpoint: mean survival time, dose: 200.0 mg/kg/injection, schedule: Q04DX003 (ip), vehicle: saline with Tween-80.
Where [5] appears, read: endpoint: mean survival time, dose: 400.0 mg/kg/injection, schedule: Q01DX009 (ip), vehicle: saline with Tween-80.
[6] abbreviates: endpoint: mean survival time, dose: 400.0 mg/kg/injection, schedule: Q04DX003 (ip), vehicle: saline with Tween-80.
Setting [7] is: endpoint: mean survival time, dose: 100.0 mg/kg/injection, schedule: Q01DX001 (ip), vehicle: saline with Tween-80.
Setting [8] is: endpoint: mean survival time, dose: 200.0 mg/kg/injection, schedule: Q01DX001 (ip), vehicle: saline with Tween-80.
Setting [9] is: endpoint: mean survival time, dose: 100.0 mg/kg/injection, schedule: Q04DX003 (ip), vehicle: other.
The mark [10] stands for this setting: endpoint: mean survival time, dose: 200.0 mg/kg/injection, schedule: Q04DX003 (ip), vehicle: other.
Where [11] appears, read: endpoint: mean survival time, dose: 400.0 mg/kg/injection, schedule: Q04DX003 (ip), vehicle: other.
Where [12] appears, read: endpoint: mean survival time, dose: 25.0 mg/kg/injection, schedule: Q01DX001 (ip), vehicle: saline with Tween-80.
Setting [13] is: endpoint: mean survival time, dose: 50.0 mg/kg/injection, schedule: Q01DX001 (ip), vehicle: saline with Tween-80.

Values joined by “and” are separate entries in the source; they are usually repeats but may differ in a detail not shown here. Equal values may be shown once. Inconclusive results and toxic doses are left out.

Turning to `O=c1c(Cl)c(Cl)cnn1-c1ccc([N+](=O)[O-])cc1[N+](=O)[O-]`, the T/C was 88 % of control (endpoint: mean survival time, dose: 100.0 mg/kg/injection, schedule: Q01DX001 (ip), vehicle: other); 88 % of control (endpoint: mean survival time, dose: 200.0 mg/kg/injection, schedule: Q01DX001 (ip), vehicle: other); 94 % of control (endpoint: mean survival time, dose: 400.0 mg/kg/injection, schedule: Q01DX001 (ip), vehicle: other).

Consider `Nc1cc(S(=O)(=O)O)c2cccnc2c1O`, for which the T/C reads like this: (endpoint: mean survival time, dose: 100.0 mg/kg/injection, schedule: Q04DX003 (ip), vehicle: saline) 114 % of control; (endpoint: mean survival time, dose: 200.0 mg/kg/injection, schedule: Q04DX003 (ip), vehicle: saline) 108 % of control.

Consider `O=C(Nc1cccc(Cl)c1)c1c[nH]c2cc(Cl)ccc2c1=O`, for which the T/C runs as follows: under setting [1], 101 % of control; under setting [2], 96 % of control; under setting [3], 95 % of control; under setting [4], 93 % of control; under setting [5], 101 % of control; under setting [6], 93 % of control.

For `CC(=O)OCCN1C(=O)c2ccccc2C1=O`, the T/C reads like this: (endpoint: mean survival time, dose: 100.0 mg/kg/injection, schedule: Q04DX003 (ip), vehicle: Klucel (hydroxypropylcellulose) (HPC)) 97 % of control; (endpoint: mean survival time, dose: 200.0 mg/kg/injection, schedule: Q04DX003 (ip), vehicle: Klucel (hydroxypropylcellulose) (HPC)) 94 % of control; (endpoint: mean survival time, dose: 400.0 mg/kg/injection, schedule: Q04DX003 (ip), vehicle: Klucel (hydroxypropylcellulose) (HPC)) 102 % of control.

As for `O=C1C2CCN(CC2)C1CN1CCOCC1` (stereo unspecified), the T/C is 96 % of control (endpoint: mean survival time, dose: 12.5 mg/kg/injection, schedule: Q04DX003 (ip), vehicle: saline); 100 % of control (endpoint: mean survival time, dose: 25.0 mg/kg/injection, schedule: Q04DX003 (ip), vehicle: saline); 111 % of control (endpoint: mean survival time, dose: 50.0 mg/kg/injection, schedule: Q04DX003 (ip), vehicle: saline).

With `N=C1CCCS1`, the T/C reads like this: (endpoint: median survival time, dose: 25.0 mg/kg/injection, schedule: Q01DX009 (ip), vehicle: saline) 112 % of control; (endpoint: median survival time, dose: 50.0 mg/kg/injection, schedule: Q01DX009 (ip), vehicle: saline) 116 % of control; (endpoint: median survival time, dose: 100.0 mg/kg/injection, schedule: Q01DX009 (ip), vehicle: saline) 122 % of control.

With `CC(=O)Oc1cc(-c2ccccc2)c(OC(C)=O)c(N=[N+]=[N-])c1C`, the T/C under setting [7] is 101 % of control and the T/C under setting [8] is 108 % of control.

For `CC(=O)OC(c1ccccc1)(c1ccccc1)c1ccncc1`, the T/C is 93 % of control under setting [9], 89 % of control under setting [10] and 93 % of control under setting [11].

Turning to `COc1ccc(-n2cnc3c(=O)[nH]c(N)nc32)cc1`, the T/C under setting [12] is 95 % of control, the T/C under setting [13] is 92 % of control and the T/C under setting [7] was 95 % of control.

On to `C=CCOc1ccccc1C(C)=O`, for which the T/C reads like this: under setting [1], 104 % of control; under setting [3], 107 % of control; under setting [5], 107 % of control.

With `O=C1C2(c3ccccc3)CCC1(c1ccccc1)C(c1ccccc1)=C2c1ccccc1`, the T/C runs as follows: under setting [12], 94 % of control; under setting [13], 87 % of control; under setting [7], 90 % of control.

Turning to `Cn1c2c(c3ccccc31)C(=O)CC2(C)C`, the T/C by setting is: (endpoint: mean survival time, dose: 50.0 mg/kg/injection, schedule: Q04DX003 (ip), vehicle: saline with Tween-80) 103 % of control; under setting [7], 93 % of control; under setting [2], 89 % of control; under setting [8], 98 % of control.

Consider `O=c1cc([O-])[n+](C2OC(CO)C(O)C2O)c2sccn12` (stereo unspecified), for which the T/C by setting is: (endpoint: median survival time, dose: 10.63 mg/kg/injection, schedule: Q01DX005 (ip), vehicle: water) 102 % of control; (endpoint: median survival time, dose: 12.5 mg/kg/injection, schedule: Q01DX005 (ip), vehicle: saline) 102 % of control; (endpoint: median survival time, dose: 21.25 mg/kg/injection, schedule: Q01DX005 (ip), vehicle: water) 98 % of control; (endpoint: median survival time, dose: 25.0 mg/kg/injection, schedule: Q01DX005 (ip), vehicle: saline) 101 % of control; (endpoint: median survival time, dose: 42.5 mg/kg/injection, schedule: Q01DX005 (ip), vehicle: water) 98 % of control; (endpoint: median survival time, dose: 50.0 mg/kg/injection, schedule: Q01DX005 (ip), vehicle: saline) 98 % of control. Besides, the T/C is, setting by setting: (endpoint: median survival time, dose: 85.0 mg/kg/injection, schedule: Q01DX005 (ip), vehicle: water) 102 % of control; (endpoint: median survival time, dose: 100.0 mg/kg/injection, schedule: Q01DX005 (ip), vehicle: saline) 97 % of control; (endpoint: median survival time, dose: 170.0 mg/kg/injection, schedule: Q01DX005 (ip), vehicle: water) 100 % of control; (endpoint: median survival time, dose: 200.0 mg/kg/injection, schedule: Q01DX005 (ip), vehicle: saline) 98 % of control.

`CCNCC`: the T/C by setting is: (endpoint: mean survival time, dose: 100.0 mg/kg/injection, schedule: Q01DX009 (ip), vehicle: saline) 100 % of control; (endpoint: mean survival time, dose: 200.0 mg/kg/injection, schedule: Q01DX009 (ip), vehicle: saline) 94 % of control; (endpoint: mean survival time, dose: 400.0 mg/kg/injection, schedule: Q01DX009 (ip), vehicle: saline) 105 % of control.

As to `O=C(O)/C=N/NS(=O)(=O)Cc1ccccc1`, the T/C is 102 % of control (endpoint: mean survival time, dose: 12.5 mg/kg/injection, schedule: Q04DX003 (ip), vehicle: other); 113 % of control (endpoint: mean survival time, dose: 25.0 mg/kg/injection, schedule: Q04DX003 (ip), vehicle: other); 117 % of control (endpoint: mean survival time, dose: 50.0 mg/kg/injection, schedule: Q04DX003 (ip), vehicle: other); 117 % of control under setting [9]; 122 % of control under setting [10]; 111 % of control under setting [11].

On to `COc1ccc(NC(=O)CCC(=O)Oc2ccccc2)cc1`, for which the T/C was 94 % of control under setting [1]; 100 % of control under setting [2]; 97 % of control under setting [3]; 100 % of control under setting [4]; 94 % of control under setting [5]; 94 % of control under setting [6].

Turning to `CN(C)C(C)(CO)CO`, the T/C by setting is: (endpoint: mean survival time, dose: 100.0 mg/kg/injection, schedule: Q01DX001 (ip), vehicle: saline) 98 % of control; (endpoint: mean survival time, dose: 200.0 mg/kg/injection, schedule: Q01DX001 (ip), vehicle: saline) 98 % of control; (endpoint: mean survival time, dose: 400.0 mg/kg/injection, schedule: Q01DX001 (ip), vehicle: saline) 113 % of control.

For the compound `Cc1ccc(S(=O)(=O)OCC(C)C)cc1`, the T/C was 101 % of control under setting [1], 101 % of control under setting [3] and 98 % of control under setting [5].

For the compound `CCOC(=O)Nc1cc2c(c(N)n1)N=C(CCc1ccccc1)CN2`, the T/C runs as follows: (endpoint: mean survival time, dose: 25.0 mg/kg/injection, schedule: Q01DX001 (ip), vehicle: Klucel (hydroxypropylcellulose) (HPC)) 107 % of control; (endpoint: mean survival time, dose: 50.0 mg/kg/injection, schedule: Q01DX001 (ip), vehicle: Klucel (hydroxypropylcellulose) (HPC)) 114 % of control; (endpoint: mean survival time, dose: 200.0 mg/kg/injection, schedule: Q01DX001 (ip), vehicle: Klucel (hydroxypropylcellulose) (HPC)) 116 % of control.

Turning to `ClCCN(CC#CCCCC#CCN(CCCl)CCCl)CCCl`, the T/C by setting is: (endpoint: mean survival time, dose: 3.12 mg/kg/injection, schedule: Q01DX009 (ip), vehicle: saline) 121 % of control; (endpoint: mean survival time, dose: 6.25 mg/kg/injection, schedule: Q01DX009 (ip), vehicle: saline) 119 % of control and 121 % of control; (endpoint: mean survival time, dose: 25.0 mg/kg/injection, schedule: Q01DX009 (ip), vehicle: saline) 162 % of control; (endpoint: mean survival time, dose: 50.0 mg/kg/injection, schedule: Q01DX009 (ip), vehicle: saline) 89 % of control and 104 % of control.
